In assay [1] the test system is Peritoneal macrophages (PEC). In words: Tolerance and M1/M2 gene expression in murine peritoneal macrophages (Real-Time PCR). It counts as cell-based, mice. The protocol:
Peritoneal macrophages (PEC) isolated from C57 black mice are used to test the tolerogenic effects of compound 2 of Table 2. The effects of this TLR7 ligand are analyzed in terms of gene expression (Real-Time PCR) of both pro-inflammatory (e.g. TNF-alpha, IL-1, IL-6) and anti-inflammatory (e.g. IL-10, TGF-beta) cytokines. Further, additional markers of M1 (e.g. iNOS, IL-12, IFN-beta, CXCL9, CXCL10) versus M2 (e.g. arginase I, Ym1, Fizz1, CCL17, CCL22, dectin 1, MGL) macrophage polarization is determined, in order to evaluate the polarizing activities of this compound. This analysis is instrumental to the understanding of mechanisms driving the tolerogenic action of compound 2 of Table 2, as an M2 polarized response is considered to be an alternative anti-inflammatory and “tolerogenic” macrophage program.
With respect to macrophage tolerance, cells are treated with two doses of compound 2 of Table 2 (1 microM and 10 microM) up to 20 hours and then re-challenged with agonists/ligands of different TLRs (TLR2, TLR4, TLR5, TLR9, TLR7, etc.), including the TLR7 unconjugated ligand 1V209 (free pharmacophore) at a concentration of 10 microM.
In a first run of experiments, the tolerogenic and polarizing ability of compound 2 of Table 2, which also is referred to hereafter as “TMX,” was evaluated. To induce tolerance, PEC were pre-treated for 20 hours with 10 μM or 1 μM TMX. Next, total RNA from control (M/M), TMX activated (M/T), 1V209 (free pharmacophore)-activated (M/I), tolerant (T/M) and tolerant PEC re-challenged with TMX (T/T) or with 1V209 (free pharmacophore) (T/I), were analyzed by RT PCR for the expression of representative M1 and M2 genes. […] However, most of the M1 genes transcripts were still induced (FIG. 1C, D).
(§1) Cell Culture and treatments. Peritoneal exudate cells (PEC) were harvested from mice injected with 1 ml of 3% (w/v) thioglycollate medium (Difco, Detroit, Mich.) 4 days prior to isolation. PECs were incubated in RPMI 1640 medium, containing 10% fetal bovine serum, 2 mM glutamine and 100 U/ml of penicillin-streptomycin. The concentration for the different treatments were as follows: LPS (100 ng/ml) (Lipopolysaccharide from Salmonella Abortus Equi S-form, Alexis), CpG (1 μg/ml), Pam3CSK (2 μg/ml), Poly I:C (10 μg/ml), Loxorubine (100 μM), flagellin (100 ng/ml) IL-1β (20 ng/ml), TNF (20 ng/ml), IL-10 (20 ng/ml) (Peprotech), IFNγ (200 U/ml) (Peprotech). To induce TMX tolerance, cells were incubated in the presence of TMX (10 μM or 1 μM) for 20 hrs, washed and maintained in RPMI medium for 2 hrs and then re-challenged with TMX (10 μM) for 4 hrs. To induce TMX-tolerization (T/M) cells were treated with TMX for 20 hrs, washed and then maintained in medium for additional 6 hours, without TMX re-challenge. To induce M1-activation, cells were incubated in medium for 20 hrs, washed, left in medium for 2 hrs and finally stimulated with TMX (10 μM) for 4 hrs. Control cells (M/M) were cultured in medium for the entire period of the experiment. For gene expression analysis, total RNA was extracted from TMX treated and untreated cells with trizol (Invitrogen), according to the manufacturer's instructions. To analyze cytokines and chemokines production supernatants were collected 24 hrs after the second challenge with TMX.
Real-Time PCR. Total RNA was purified as previously described. Briefly, reverse transcription from 1 μg of RNA was performed using cDNA Archive kit (Applied Biosystem, NJ, USA). Real time PCR was performed using Power Syber Green PCR Master Mix (Applied Biosystem, NJ, USA) and detected by 7900HT Fast Real-Time System (Applied Biosystem, NJ, USA). Data were processed using the SDS2.2.2 software (Applied Biosystem, NJ, USA). Results were normalized to the expression of the housekeeping gene β-actin and then expressed as folds of upregulation, with respect to the control cell population.
A general note: Quantitative PCR measures a nucleic acid by following its amplification.

For assay [2], the system named is murine peritoneal macrophages (PEC). Briefly: Cross-tolerance toward TLR ligands and pro-inflammatory cytokines in PEC (gene expression). It counts as cell-based, mice. The protocol:
In addition, tolerance is tested also in response to primary cytokines IL-1-beta and TNFalpha. This approach clarifies whether the TLR7 partial agonist compound 2 of Table 2 promotes cross-tolerance of different members of the TLR family, as well as of the IL-1 and TNF receptor systems, which has been regularly reported.
A second group of experiments was performed to evaluate the capacity of TMX to promote cross tolerance toward several TLR ligands and pro-inflammatory cytokines. PECs maintained in medium or pre-treated for 20 hours with 10 μM or 1 μM of TMX and re-challenged with several TLR agonists or pro-inflammatory cytokines were analyzed for the expression of selected M1 and M2 genes.
as §1
Real-Time PCR. Total RNA was purified as previously described. Briefly, reverse transcription from 1 μg of RNA was performed using cDNA Archive kit (Applied Biosystem, NJ, USA). Real time PCR was performed using Power Syber Green PCR Master Mix (Applied Biosystem, NJ, USA) and detected by 7900HT Fast Real-Time System (Applied Biosystem, NJ, USA). […] Results were normalized to the expression of the housekeeping gene β-actin and then expressed as folds of upregulation, with respect to the control cell population.

The mark [3] stands for this setting: PEC pre-treated 20 hours with 10 μM TMX, RT PCR.

The values below come from patent publication US20120083473A1, “TREATMENT OF CONDITIONS BY TOLL-LIKE RECEPTOR MODULATORS” (priority 2010, published 2012).

SMILES strings stand for the structures.

As to `COCCOc1nc(N)c2nc(O)n(Cc3ccc(C(=O)NCCOCCOCCOCCOCCOCCOCCn4cc(CCC(=O)O)nn4)cc3)c2n1` [Compound 2], the M2 gene expression entry in assay [1] (1 μM TMX pre-treatment, except for IL-10) was “did not enhance”. Also, in assay [1] (setting [3]), the “M1 (TNF-alpha, IL-12, IFN-beta, CXCL10) gene expression in state of tolerance” value was “low” and the “selected M2 genes (IL-10, TGFβ, Arg I, CCL17, CCL22) in state of tolerance” value is recorded as “high levels”. Besides, in assay [1] (PEC, TMX), the “M2 markers Ym1, Fizz1, MGL2 gene transcripts” value is given as “No significant modulation”. For the same compound, the induction of tolerance entry in assay [1] (pre-treatment with 1 μM TMX, except for IL-12p40) is on record as “unable to induce tolerance”. Besides, in assay [1] (prolonged exposure of PEC to high concentration of TMX), the macrophage activation entry was “M2 skewed activation”. Further, the “M2 genes expression on re-challenge with different TLR agonists” value in assay [2] (PECs pre-treated with TMX) is reported as “triggered the expression of M2 genes”. In addition, the “M1 genes expression in response to TLR ligands” value in assay [2] (PECs tolerized by 20 hours pre-treatment with 10 μM TMX) was “inability to up-regulate M1 genes expression”. For the same compound, the cross-tolerance entry in assay [2] (TMX 10 microM, exception CXCL10 following re-challenge with CpG, poly I:C, LPS) is on record as “observed”. Moreover, the “IL-10 expression following re-challenge of TMX-tolerant macrophages with TNF” value in assay [2] (TNF 20 ng/ml) is “still induced”.
